# Laboratory results as given in ChEMBL document CHEMBL3822377, “Locking PDK1 in DFG-out conformation through 2-oxo-indole containing molecules: Another tools to fight glioblastoma” (Eur J Med Chem, 2016).
# How the values were obtained:
# [1] = molecular target: Protein kinase C epsilon type (Homo sapiens) (UniProt Q02156); assay: Inhibition of full-length recombinant human PRKCE expressed in baculovirus system at 100 nM by Z-lyte assay
# [2] = molecular target: CDK9/cyclin T1 (Homo sapiens) (UniProt O60563+P50750); assay: Inhibition of His-tagged full-length human recombinant CDK9/Cyclin T1 expressed in baculovirus system at 100 nM by adapta assay
# [3] = molecular target: Tyrosine-protein kinase ITK/TSK (Homo sapiens) (UniProt Q08881); assay: Inhibition of cytosolic GST-tagged full-length recombinant human ITK expressed in baculovirus system at 100 nM by Z-lyte assay
# [4] = molecular target: Cyclin-dependent kinase 1/cyclin B1 (Homo sapiens) (UniProt P06493+P14635); assay: Inhibition of His-tagged full-length human CDK1/Cyclin B expressed in baculovirus system at 100 nM by Z-lyte assay
# [5] = molecular target: Serine/threonine-protein kinase MARK1 (Homo sapiens) (UniProt Q9P0L2); assay: Inhibition of GST-tagged full-length recombinant human MARK1 expressed in baculovirus system at 100 nM by Z-lyte assay
# [6] = molecular target: Tyrosine-protein kinase JAK1 (Homo sapiens) (UniProt P23458); assay: Inhibition of cytosolic GST-tagged full-length recombinant human JAK1 expressed in baculovirus system at 100 nM by Z-lyte assay
# [7] = molecular target: Casein kinase I isoform gamma-1 (Homo sapiens) (UniProt Q9HCP0); assay: Inhibition of GST-tagged full-length human CSNK1G1 expressed in baculovirus system at 100 nM by Z-lyte assay
# [8] = molecular target: MAP kinase-activated protein kinase 2 (Homo sapiens) (UniProt P49137); assay: Inhibition of His-tagged full-length recombinant human MAPKAPK2 expressed in Escherichia coli at 100 nM by Z-lyte assay
# [9] = molecular target: Cyclin-dependent kinase 5/CDK5 activator 1 (Homo sapiens) (UniProt Q00535+Q15078); assay: Inhibition of GST/His-tagged full-length human CDK5/p25 expressed in baculovirus system at 100 nM by Z-lyte assay
# [10] = molecular target: Ribosomal protein S6 kinase alpha-1 (Homo sapiens) (UniProt Q15418); assay: Inhibition of His-tagged full-length recombinant human RSK1 expressed in baculovirus system at 100 nM by Z-lyte assay
# U-87MG ATCC = assay: Inhibition of AKT phosphorylation at Thr308 residue in human U87MG cells at 10 uM by ELISA relative to control; format: cell-based
# [11] = molecular target: Tyrosine-protein kinase ABL1 (Homo sapiens) (UniProt P00519); assay: Inhibition of His-tagged full-length human ABL1 expressed in baculovirus system at 100 nM by Z-lyte assay
# [12] = molecular target: Rho-associated protein kinase 1 (Homo sapiens) (UniProt Q13464); assay: Inhibition of catalytic GST-tagged human ROCK1 expressed in baculovirus system at 100 nM by Z-lyte assay
# [13] = molecular target: Serine/threonine-protein kinase Chk1 (Homo sapiens) (UniProt O14757); assay: Inhibition of His-tagged full-length human CHEK1 expressed in baculovirus system at 100 nM by Z-lyte assay
# [14] = molecular target: Interleukin-1 receptor-associated kinase 4 (Homo sapiens) (UniProt Q9NWZ3); assay: Inhibition of His-tagged full-length human IRAK4 expressed in baculovirus system at 100 nM by Z-lyte assay
# [15] = molecular target: Mitogen-activated protein kinase 8 (Homo sapiens) (UniProt P45983); assay: Inhibition of His-tagged full-length human MAPK8 expressed in baculovirus system at 100 nM by Z-lyte assay
# [16] = molecular target: AMP-activated protein kinase, AMPK (Homo sapiens) (UniProt P54646+O43741+P54619+Q9UGJ0+Q9Y478+Q13131+Q9UGI9); assay: Inhibition of GST/His-tagged full-length human recombinant AMPK A1/B1/G1 expressed in baculovirus system at 100 nM by Z-lyte assay
# [17] = molecular target: T1, 3-phosphoinositide-dependent protein kinase 1 (Homo sapiens) (UniProt O15530); assay: Inhibition of PDK1 (unknown origin) at 10 uM by FRET-based Z-lyte assay
# T1 sequence (whole entry): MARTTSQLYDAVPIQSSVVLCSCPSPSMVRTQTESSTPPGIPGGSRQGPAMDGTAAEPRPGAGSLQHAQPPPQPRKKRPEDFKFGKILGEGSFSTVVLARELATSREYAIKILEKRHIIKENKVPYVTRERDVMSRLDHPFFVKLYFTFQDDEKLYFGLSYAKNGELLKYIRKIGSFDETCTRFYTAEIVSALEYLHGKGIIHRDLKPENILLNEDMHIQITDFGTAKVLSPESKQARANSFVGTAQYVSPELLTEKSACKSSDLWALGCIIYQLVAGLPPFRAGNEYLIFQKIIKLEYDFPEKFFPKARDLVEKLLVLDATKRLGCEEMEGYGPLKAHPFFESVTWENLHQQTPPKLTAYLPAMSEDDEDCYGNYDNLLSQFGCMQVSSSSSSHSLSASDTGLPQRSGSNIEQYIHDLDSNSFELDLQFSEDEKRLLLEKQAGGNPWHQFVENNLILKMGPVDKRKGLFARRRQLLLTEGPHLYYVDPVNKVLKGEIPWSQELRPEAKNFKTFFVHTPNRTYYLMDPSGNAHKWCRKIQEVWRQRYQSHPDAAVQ
# [18] = molecular target: T1, 3-phosphoinositide-dependent protein kinase 1 (Homo sapiens); assay: Inhibition of PDK1 in human GSC cells assessed as reduction in AKT phosphorylation at Thr308 residue at 10 uM by ELISA relative to control; format: cell-based; details: TDE = time-dependent effect
# [19] = molecular target: Serine/threonine-protein kinase MRCK alpha (Homo sapiens) (UniProt Q5VT25); assay: Inhibition of His-tagged human CDC42 BPA expressed in baculovirus system at 100 nM by Z-lyte assay
# [20] = Induction of apoptosis in human GSC cells assessed as late apoptotic cells by measuring phosphatidylserine externalisation at 10 uM after 7 days in presence of 7-amino-actinomysin by AnnexinV/FITC staining-based flow cytometry (reference value: 4.14%); format: functional
# Sequence of Serine/threonine-protein kinase MARK1 (Homo sapiens) (Q9P0L2 whole entry, looked up): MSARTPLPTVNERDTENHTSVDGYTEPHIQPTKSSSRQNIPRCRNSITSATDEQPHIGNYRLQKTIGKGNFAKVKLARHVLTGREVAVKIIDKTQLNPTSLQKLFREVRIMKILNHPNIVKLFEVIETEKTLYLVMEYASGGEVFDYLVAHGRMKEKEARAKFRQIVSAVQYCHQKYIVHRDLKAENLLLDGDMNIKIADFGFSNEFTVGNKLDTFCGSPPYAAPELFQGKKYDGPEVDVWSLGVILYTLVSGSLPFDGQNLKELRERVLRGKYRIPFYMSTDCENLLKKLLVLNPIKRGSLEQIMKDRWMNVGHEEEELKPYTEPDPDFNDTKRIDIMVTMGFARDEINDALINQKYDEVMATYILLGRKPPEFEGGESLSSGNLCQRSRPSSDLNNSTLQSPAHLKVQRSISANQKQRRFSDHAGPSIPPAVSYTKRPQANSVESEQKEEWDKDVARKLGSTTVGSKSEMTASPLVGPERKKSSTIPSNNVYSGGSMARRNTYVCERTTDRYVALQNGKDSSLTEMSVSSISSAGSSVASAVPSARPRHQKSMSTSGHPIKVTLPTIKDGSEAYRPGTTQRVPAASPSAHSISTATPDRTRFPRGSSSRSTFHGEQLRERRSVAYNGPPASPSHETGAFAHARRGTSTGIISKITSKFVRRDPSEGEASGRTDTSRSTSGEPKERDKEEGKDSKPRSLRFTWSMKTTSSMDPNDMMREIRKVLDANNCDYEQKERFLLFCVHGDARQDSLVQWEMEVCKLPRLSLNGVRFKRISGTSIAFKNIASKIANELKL
# Sequence of Mitogen-activated protein kinase 8 (Homo sapiens) (P45983 whole entry): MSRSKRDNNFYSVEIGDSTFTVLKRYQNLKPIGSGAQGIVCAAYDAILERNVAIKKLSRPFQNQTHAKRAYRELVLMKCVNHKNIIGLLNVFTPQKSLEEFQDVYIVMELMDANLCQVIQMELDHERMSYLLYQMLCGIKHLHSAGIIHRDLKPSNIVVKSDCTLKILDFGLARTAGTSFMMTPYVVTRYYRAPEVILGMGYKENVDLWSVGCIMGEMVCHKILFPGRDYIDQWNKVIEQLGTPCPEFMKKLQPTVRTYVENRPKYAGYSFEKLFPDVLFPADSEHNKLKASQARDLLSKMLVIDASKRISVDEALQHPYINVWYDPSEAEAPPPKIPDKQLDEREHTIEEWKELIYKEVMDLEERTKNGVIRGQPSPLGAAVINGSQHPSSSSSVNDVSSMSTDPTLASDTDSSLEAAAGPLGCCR
# Sequence of Ribosomal protein S6 kinase alpha-1 (Homo sapiens) (Q15418 whole entry): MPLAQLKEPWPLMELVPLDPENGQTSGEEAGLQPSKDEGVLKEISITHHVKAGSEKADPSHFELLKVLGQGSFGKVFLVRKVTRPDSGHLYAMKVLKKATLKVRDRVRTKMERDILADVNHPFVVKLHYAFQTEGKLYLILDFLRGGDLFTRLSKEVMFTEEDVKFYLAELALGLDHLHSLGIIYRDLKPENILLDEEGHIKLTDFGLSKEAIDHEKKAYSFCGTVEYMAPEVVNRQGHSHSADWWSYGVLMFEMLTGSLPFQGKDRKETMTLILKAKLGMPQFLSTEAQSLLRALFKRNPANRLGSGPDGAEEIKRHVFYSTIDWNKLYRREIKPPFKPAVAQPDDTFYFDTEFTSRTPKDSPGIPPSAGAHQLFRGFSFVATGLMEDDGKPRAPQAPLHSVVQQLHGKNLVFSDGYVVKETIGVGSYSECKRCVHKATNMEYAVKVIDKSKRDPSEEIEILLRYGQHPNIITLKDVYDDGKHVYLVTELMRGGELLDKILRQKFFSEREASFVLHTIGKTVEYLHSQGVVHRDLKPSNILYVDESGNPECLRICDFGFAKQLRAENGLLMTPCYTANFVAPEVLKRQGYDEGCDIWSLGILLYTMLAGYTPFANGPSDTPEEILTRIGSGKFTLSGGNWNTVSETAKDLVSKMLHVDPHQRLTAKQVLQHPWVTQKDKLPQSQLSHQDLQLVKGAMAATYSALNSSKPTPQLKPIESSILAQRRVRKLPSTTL
# Sequence of Cyclin-dependent kinase 1/cyclin B1 (Homo sapiens) (P06493 whole entry, looked up): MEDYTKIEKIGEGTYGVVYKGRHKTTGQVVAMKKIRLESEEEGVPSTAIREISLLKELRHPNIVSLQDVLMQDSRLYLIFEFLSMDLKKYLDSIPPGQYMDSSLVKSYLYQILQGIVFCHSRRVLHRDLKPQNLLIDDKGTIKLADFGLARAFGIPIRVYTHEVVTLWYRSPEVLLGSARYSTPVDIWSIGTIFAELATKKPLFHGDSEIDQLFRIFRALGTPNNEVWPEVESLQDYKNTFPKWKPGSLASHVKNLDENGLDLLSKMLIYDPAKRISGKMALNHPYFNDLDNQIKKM
# Sequence of Cyclin-dependent kinase 1/cyclin B1 (Homo sapiens) (P14635 whole entry, looked up): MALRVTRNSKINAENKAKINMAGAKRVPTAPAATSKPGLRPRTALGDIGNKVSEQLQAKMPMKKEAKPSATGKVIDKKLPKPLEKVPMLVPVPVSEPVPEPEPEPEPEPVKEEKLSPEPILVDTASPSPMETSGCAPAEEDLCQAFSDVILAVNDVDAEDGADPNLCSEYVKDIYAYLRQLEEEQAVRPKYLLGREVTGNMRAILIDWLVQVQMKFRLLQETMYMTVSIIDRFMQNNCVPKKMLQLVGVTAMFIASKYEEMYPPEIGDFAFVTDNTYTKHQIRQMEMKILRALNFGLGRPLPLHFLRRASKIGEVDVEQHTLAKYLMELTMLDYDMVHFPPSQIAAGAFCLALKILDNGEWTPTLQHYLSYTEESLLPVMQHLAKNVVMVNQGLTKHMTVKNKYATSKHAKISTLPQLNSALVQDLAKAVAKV
# Sequence of Interleukin-1 receptor-associated kinase 4 (Homo sapiens) (Q9NWZ3 whole entry): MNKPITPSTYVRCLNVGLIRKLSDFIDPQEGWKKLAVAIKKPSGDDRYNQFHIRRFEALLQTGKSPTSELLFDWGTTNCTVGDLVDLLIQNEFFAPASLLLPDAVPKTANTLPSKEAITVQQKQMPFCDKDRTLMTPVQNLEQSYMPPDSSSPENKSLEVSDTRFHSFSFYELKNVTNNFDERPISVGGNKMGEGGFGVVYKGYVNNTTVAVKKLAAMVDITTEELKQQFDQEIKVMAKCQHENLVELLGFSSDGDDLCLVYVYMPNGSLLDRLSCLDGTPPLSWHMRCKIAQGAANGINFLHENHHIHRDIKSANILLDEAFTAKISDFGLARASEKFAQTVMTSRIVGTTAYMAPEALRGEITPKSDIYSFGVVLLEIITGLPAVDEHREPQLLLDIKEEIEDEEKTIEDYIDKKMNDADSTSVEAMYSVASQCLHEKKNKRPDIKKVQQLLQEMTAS
# Sequence of Cyclin-dependent kinase 5/CDK5 activator 1 (Homo sapiens) (Q00535 whole entry): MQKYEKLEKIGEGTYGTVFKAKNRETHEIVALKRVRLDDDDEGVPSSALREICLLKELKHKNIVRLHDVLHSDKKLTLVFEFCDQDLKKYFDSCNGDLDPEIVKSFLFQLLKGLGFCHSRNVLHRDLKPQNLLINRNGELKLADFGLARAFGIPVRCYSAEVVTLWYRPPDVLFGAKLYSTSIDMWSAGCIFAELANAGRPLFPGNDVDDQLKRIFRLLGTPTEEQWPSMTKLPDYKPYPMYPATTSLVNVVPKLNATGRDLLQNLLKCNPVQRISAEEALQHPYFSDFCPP
# Sequence of Cyclin-dependent kinase 5/CDK5 activator 1 (Homo sapiens) (Q15078 99-307 partner limits assumed): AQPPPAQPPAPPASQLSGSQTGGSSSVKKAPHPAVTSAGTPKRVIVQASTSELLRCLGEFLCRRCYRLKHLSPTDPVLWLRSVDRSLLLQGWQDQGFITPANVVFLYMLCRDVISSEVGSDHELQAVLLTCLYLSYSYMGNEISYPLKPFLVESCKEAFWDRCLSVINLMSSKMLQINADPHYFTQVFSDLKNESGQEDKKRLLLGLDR
# Sequence of Tyrosine-protein kinase JAK1 (Homo sapiens) (P23458 whole entry, canonical isoform): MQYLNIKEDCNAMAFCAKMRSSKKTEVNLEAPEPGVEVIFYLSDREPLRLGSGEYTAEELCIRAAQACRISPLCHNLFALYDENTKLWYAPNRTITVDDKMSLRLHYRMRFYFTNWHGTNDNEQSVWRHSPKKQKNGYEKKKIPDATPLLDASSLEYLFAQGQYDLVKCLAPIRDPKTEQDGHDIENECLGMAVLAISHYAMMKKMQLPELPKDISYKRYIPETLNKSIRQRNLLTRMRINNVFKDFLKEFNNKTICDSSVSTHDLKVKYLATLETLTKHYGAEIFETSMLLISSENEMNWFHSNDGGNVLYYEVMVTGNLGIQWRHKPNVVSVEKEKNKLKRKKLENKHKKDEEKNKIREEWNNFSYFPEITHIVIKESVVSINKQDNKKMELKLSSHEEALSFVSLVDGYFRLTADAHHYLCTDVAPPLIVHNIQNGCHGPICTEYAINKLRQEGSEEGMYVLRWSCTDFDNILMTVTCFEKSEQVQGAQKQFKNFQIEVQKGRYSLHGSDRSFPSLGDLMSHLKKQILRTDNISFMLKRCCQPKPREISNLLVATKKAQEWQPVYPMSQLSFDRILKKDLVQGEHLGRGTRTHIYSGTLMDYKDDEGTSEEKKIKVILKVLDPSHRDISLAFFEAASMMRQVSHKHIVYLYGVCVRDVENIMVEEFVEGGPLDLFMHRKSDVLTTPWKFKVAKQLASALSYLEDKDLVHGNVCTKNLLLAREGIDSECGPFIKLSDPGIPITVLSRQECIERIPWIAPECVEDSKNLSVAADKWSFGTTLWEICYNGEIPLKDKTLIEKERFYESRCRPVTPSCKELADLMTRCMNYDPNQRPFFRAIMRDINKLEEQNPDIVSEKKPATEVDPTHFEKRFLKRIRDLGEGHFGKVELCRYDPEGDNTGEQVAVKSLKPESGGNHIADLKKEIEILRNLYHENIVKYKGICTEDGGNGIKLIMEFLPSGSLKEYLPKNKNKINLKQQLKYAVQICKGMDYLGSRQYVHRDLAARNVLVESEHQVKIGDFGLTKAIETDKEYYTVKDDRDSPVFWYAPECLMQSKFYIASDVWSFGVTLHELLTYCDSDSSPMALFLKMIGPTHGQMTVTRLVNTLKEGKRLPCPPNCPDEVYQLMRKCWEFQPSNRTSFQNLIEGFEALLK
structure (smiles),measurement,setting,value
O=C(CNC(=O)c1cccn(Cc2ccc(F)c(F)c2)c1=O)Nc1ccc2c(c1)/C(=C/c1cnc[nH]1)C(=O)N2,inhibition,[1],3%
same,inhibition,[2],6%
same,inhibition,[3],14%
same,inhibition,[4],6%
same,inhibition,[5],17%
same,inhibition,[6],-8%
same,inhibition,[7],3%
same,inhibition,[8],0%
same,inhibition,[9],-8%
same,inhibition,[10],2%
same,inhibition,U-87MG ATCC,Dose-dependent effect
same,inhibition,[11],14%
same,inhibition,[12],-7%
same,inhibition,[13],6%
same,inhibition,[14],-6%
same,inhibition,[15],12%
same,inhibition,[16],7%
same,inhibition,[17],87%
same,inhibition,[18],tde
same,inhibition,[19],-3%
same,Activity,[20],22.7%
